From US10556994B2, “Strictly segmented thermoplastic elastomers as biodegradable biomaterials” (SyMO-Chem B.V., priority 2014, dated 2020)
Like-named read-outs stand apart in the source and are kept apart here.

Tests used:
[1] = Solubility in PBS of hard block degradation products; type: physicochemical; details: for solubility: aqueous buffer
Excerpt: The variety of the biodegradation products of the [AB]n materials of this invention is limited, where this is due to the simple and defined molecular structures of the [AB]n materials with only one type of soft block A and only one type of hard block B for a particular [AB]n material. […] Degradation products from the hard block are lower molecular weight molecules such as the molecules shown in Examples 25 and 26 (not: molecules 26E, 26F, 26G).

[2] = system: 3T3 mouse fibroblasts
[3] = system: 3T3 mouse fibroblasts; experiment: MTT cytotoxicity assay; details: cells treated with medium exposed to the material, relative to untreated medium

| solubility [1] [µg/mL] | Compound | other results |
| --- | --- | --- |
| > 5000 | NCCCCNC(=O)CCCCC(=O)NCCCCN [Example 25D, N^1,N^6-bis(4-aminobutyl)adipamide] |  |
| > 5000 | NCCCCCCNC(=O)NCCCCCCN [Example 25E, 1,3-bis-(6-aminohexyl)urea] |  |
| > 5000 | NCCCCCNC(=O)CCCCCN [Example 25C, 6-amino-N-(5-aminopentyl)hexanamide] |  |

The next lines start with the compound.

| Compound | solubility [1] [µg/mL] | other results |
| --- | --- | --- |
| poly(hexyl carbonate-random-co-ε-caprolactone) bisurea [Example 32] |  | cell viability [2]: 60-116% |
| O=C(O)CCCCCNC(=O)NCCCCNC(=O)NCCCCCC(=O)O [Example 26B] |  | solubility in PBS [1]: > 1000 µg/mL |
| Triton X-100 |  | cell viability [3]: 0% |
